Structures can show the parent of a compound that is named as a salt. Where two headings read alike, the source gives them in different places.
What was measured:
ROCK2 = biological target: T1, ROCK2 (Homo sapiens, UniProt O75116); experiment: ROCK2 kinase binding affinity, DiscoverX KINOMEscan KdELECT; conditions: for ROCK 2 Selectivity: ROCK2 over ROCK1, from Kd values, N/C = not calculated
T1 construct: purchased DiscoverX (KINOMEscan KdELECT service); host or cells: E. coli BL21-derived (T7 phage) or HEK-293
T1 sequence (O75116 whole entry): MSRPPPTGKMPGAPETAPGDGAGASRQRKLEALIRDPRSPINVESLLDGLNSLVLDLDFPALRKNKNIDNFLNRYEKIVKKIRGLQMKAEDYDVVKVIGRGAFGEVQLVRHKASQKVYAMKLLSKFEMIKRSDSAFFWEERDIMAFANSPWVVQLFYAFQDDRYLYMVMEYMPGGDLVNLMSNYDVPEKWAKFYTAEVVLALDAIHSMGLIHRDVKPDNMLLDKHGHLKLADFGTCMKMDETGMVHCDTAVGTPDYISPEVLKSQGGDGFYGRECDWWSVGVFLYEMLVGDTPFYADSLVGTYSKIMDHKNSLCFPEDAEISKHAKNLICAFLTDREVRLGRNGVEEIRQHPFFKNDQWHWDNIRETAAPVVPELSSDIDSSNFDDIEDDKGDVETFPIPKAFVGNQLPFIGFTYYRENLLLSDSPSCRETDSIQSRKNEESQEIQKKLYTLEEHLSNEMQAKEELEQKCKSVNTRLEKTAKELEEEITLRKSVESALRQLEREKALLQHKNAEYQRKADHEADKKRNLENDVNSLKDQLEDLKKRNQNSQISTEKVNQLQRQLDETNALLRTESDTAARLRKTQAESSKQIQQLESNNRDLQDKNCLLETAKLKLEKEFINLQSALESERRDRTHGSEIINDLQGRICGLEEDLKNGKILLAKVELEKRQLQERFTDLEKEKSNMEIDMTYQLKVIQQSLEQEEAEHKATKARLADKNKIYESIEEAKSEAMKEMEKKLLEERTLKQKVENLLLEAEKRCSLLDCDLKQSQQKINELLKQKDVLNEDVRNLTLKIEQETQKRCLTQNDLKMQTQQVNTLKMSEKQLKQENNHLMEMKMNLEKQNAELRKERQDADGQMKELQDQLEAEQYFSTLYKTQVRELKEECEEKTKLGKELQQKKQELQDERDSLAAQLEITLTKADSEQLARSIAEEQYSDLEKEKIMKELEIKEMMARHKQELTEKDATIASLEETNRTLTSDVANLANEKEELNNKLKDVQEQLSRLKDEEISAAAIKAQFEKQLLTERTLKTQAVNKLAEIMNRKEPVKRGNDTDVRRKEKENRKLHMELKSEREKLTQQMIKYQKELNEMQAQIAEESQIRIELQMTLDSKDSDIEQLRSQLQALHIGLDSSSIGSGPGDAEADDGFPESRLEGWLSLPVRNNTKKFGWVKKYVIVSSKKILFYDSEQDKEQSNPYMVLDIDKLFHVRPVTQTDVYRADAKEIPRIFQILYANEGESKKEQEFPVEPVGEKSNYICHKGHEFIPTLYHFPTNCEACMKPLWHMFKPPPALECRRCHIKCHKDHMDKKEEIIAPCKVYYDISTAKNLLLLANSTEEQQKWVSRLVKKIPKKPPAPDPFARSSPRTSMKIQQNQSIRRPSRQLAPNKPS
Method: (§1) 1. ROCK1 and ROCK2 kinase assays: The ROCK1 and ROCK2 kinase binding affinities of compounds in this invention were determined by DiscoverX's KINOMEscan™ KdELECT technology (https://www.discoverx.com/kinomescan-elect-kinase-screening-and-profiling-services): Kinase-tagged T7 phage strains were prepared in an E. coli host derived from the BL21 strain. E. coli were grown to log-phase and infected with T7 phage and incubated with shaking at 32° C. until lysis. The lysates were centrifuged and filtered to remove cell debris. The remaining kinases were produced in HEK-293 cells and subsequently tagged with DNA for qPCR detection. Streptavidin-coated magnetic beads were treated with biotinylated small molecule ligands for 30 minutes at room temperature to generate affinity resins for kinase assays. The liganded beads were blocked with excess biotin and washed with blocking buffer (SeaBlock (Pierce), 1% BSA, 0.05% Tween 20, 1 mM DTT) to remove unbound ligand and to reduce nonspecific binding. […] Test compounds were prepared as 111X stocks in 100% DMSO. Kds were determined using an 11-point 3-fold compound dilution series with three DMSO control points. […] The compounds were then diluted directly into the assays such that the final concentration of DMSO was 0.9%. All reactions performed in polypropylene 384-well plate. Each was a final volume of 0.02 ml. […] The kinase concentration in the eluates was measured by qPCR.

ROCK1 = biological target: T2, ROCK1 (Homo sapiens, UniProt Q13464); experiment: ROCK1 kinase binding affinity, DiscoverX KINOMEscan KdELECT; conditions: equilibrium dissociation constant, 11-point 3-fold dilution series
T2 construct: purchased DiscoverX (KINOMEscan KdELECT service); host or cells: E. coli BL21-derived (T7 phage) or HEK-293
T2 sequence (Q13464 whole entry): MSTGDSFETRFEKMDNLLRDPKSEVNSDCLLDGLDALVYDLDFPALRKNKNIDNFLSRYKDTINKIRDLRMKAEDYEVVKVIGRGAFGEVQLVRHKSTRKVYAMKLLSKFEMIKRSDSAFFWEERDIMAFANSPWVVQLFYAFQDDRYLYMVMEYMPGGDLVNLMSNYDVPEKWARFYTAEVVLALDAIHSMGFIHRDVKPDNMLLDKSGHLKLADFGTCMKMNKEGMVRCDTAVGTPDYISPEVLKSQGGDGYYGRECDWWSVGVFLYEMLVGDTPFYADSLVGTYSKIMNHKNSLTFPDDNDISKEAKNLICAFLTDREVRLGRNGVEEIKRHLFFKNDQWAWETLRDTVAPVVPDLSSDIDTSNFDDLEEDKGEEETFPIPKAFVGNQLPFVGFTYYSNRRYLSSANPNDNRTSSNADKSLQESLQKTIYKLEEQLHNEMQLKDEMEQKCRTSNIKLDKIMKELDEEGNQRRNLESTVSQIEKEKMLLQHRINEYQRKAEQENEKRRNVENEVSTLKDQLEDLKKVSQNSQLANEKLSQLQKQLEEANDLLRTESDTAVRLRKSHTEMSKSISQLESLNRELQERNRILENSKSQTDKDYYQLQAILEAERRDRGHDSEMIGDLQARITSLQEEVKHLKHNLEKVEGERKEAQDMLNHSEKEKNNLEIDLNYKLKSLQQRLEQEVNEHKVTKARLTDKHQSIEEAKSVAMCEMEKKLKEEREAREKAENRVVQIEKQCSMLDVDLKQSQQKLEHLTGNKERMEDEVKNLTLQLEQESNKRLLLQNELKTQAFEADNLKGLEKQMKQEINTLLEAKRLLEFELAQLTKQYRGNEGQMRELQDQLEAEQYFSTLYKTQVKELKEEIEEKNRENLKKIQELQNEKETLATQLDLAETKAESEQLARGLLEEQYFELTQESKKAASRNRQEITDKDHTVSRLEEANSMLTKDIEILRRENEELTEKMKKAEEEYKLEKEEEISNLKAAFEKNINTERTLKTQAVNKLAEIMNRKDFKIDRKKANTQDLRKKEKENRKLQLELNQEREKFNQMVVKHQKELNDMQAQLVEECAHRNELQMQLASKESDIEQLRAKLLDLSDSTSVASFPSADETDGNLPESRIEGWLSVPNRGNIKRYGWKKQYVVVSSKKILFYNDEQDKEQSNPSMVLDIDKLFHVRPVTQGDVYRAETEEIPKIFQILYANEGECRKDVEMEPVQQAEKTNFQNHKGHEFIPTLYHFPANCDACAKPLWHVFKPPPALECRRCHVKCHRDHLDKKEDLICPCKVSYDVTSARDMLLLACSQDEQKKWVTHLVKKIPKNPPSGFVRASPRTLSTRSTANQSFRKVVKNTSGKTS
Method: as §1

[1] = equilibrium dissociation constant, 11-point 3-fold dilution series, read-out: Kd (μM) ROCK2

ROCK 2 Selectivity (ROCK2)	Kd (ROCK2; [1]) [µM]	Kd (ROCK1) [µM]	SMILES	Kd (ROCK2) [µM]
>45	0.66	> 30	CN1CCN(c2ccc3c(c2)CN(c2nccc(-c4cccc(C#Cc5ccc6[nH]ncc6c5)n4)n2)C3)CC1 [Ex. 23, 5-((6-(2-(5-(4-Methylpiperazin-1-yl)isoindolin-2-yl)pyrimidin-4-yl)pyridin-2-yl)ethynyl)-1H-indazole]	
	> 30	> 30	COc1ccc2c(c1)CN(c1nccc(-c3nccc(C#Cc4ccc5c(c4)CNC5=O)n3)n1)C2 [Ex. 7, 5-((2′-(5-Methoxyisoindolin-2-yl)-[2,4′-bipyrimidin]-4-yl)ethynyl)isoindolin-1-one]	
>6.67	4.5	> 30	Fc1cc(C#Cc2ccc3[nH]ncc3c2)cc(-c2ccnc(N3Cc4ccc(Cl)cc4C3)n2)c1 [Ex. 26, 5-((3-(2-(5-Chloroisoindolin-2-yl)pyrimidin-4-yl)-5-fluorophenyl)ethynyl)-1H-indazole]	
119	0.0069	0.82	COc1ccc2c(c1)CN(c1nccc(-c3nccc(C#Cc4ccc5[nH]ncc5c4)n3)n1)C2 [Ex. 3, 5-((2′-(5-Methoxyisoindolin-2-yl)-[2,4′-bipyrimidin]-4-yl)ethynyl)-1H-indazole]	
142	0.024	3.4	C(#Cc1ccnc(-c2ccnc(N3Cc4ncsc4C3)n2)n1)c1ccc2[nH]ncc2c1 [Ex. 65, 5-(4-((1H-Indazol-5-yl)ethynyl)-[2,4′-bipyrimidin]-2′-yl)-5,6-dihydro-4H-pyrrolo[3,4-d]thiazole]	
51.6	0.0031	0.16	COCCOc1ccc2c(c1)CN(c1nccc(-c3nccc(C#Cc4ccc5[nH]ncc5c4)n3)n1)C2 [Ex. 47, 5-((2′-(5-(2-Methoxyethoxy)isoindolin-2-yl)-[2,4′-bipyrimidin]-4-yl)ethynyl)-1H-indazole]	
26.5	0.34	9	C(#Cc1ccnc(-c2ccnc(N3CCN(c4ccccc4)CC3)n2)n1)c1ccc2[nH]ncc2c1 [Ex. 52, 5-((2′-(4-Phenylpiperazin-1-yl)-[2,4′-bipyrimidin]-4-yl)ethynyl)-1H-indazole]	
132.8	0.0058	0.77	Brc1ccc2c(c1)CN(c1nccc(-c3nccc(C#Cc4ccc5[nH]ncc5c4)n3)n1)C2 [Ex. 30, 5-((2′-(5-Bromoisoindolin-2-yl)-[2,4′-bipyrimidin]-4-yl)ethynyl)-1H-indazole]	
>1500	0.02	> 30	COc1ccc2c(c1)CN(c1nccc(-c3nccc(C#Cc4ccc5[nH]nc(F)c5c4)n3)n1)C2 [Ex. 5, 3-Fluoro-5-((2′-(5-methoxyisoindolin-2-yl)-[2,4′-bipyrimidin]-4-yl)ethynyl)-1H-indazole]	
	> 30	> 30	COc1ccc2c(c1)CN(c1nccc(-c3nccc(C#Cc4ccncc4)n3)n1)C2 [Ex. 1, 5-Methoxy-2-(4-(pyridin-4-ylethynyl)-[2,4′-bipyrimidin]-2′-yl)isoindoline]	
>44.1	0.68	> 30	COc1ccc2c(c1)CN(c1nccc(-c3nccc(C#Cc4cnc5[nH]ncc5c4)n3)n1)C2 [Ex. 33, 5-((2′-(5-Methoxyisoindolin-2-yl)-[2,4′-bipyrimidin]-4-yl)ethynyl)-1H-pyrazolo[3,4-b]pyridine]	
	> 30	> 30	Fc1cc(C#Cc2ccc3[nH]ncc3c2)cc(-c2ccnc(N3Cc4ccc(F)cc4C3)n2)c1 [Ex. 25, 5-((3-Fluoro-5-(2-(5-fluoroisoindolin-2-yl)pyrimidin-4-yl)phenyl)ethynyl)-1H-indazole]	
27.7	0.22	6.1	COc1cccc(C2CCN(c3nccc(-c4nccc(C#Cc5ccc6[nH]ncc6c5)n4)n3)C2)c1 (centres unmarked) [Ex. 70, 5-((2′-(3-(3-Methoxyphenyl)pyrrolidin-1-yl)-[2,4′-bipyrimidin]-4-yl)ethynyl)-1H-indazole]	
	> 30	> 30	CNC(=O)c1ccc(C#Cc2ccnc(-c3ccnc(N4Cc5ccc(OC)cc5C4)n3)n2)cc1 [Ex. 11, 4-((2′-(5-Methoxyisoindolin-2-yl)-[2,4′-bipyrimidin]-4-yl)ethynyl)-N-methylbenzamide]	
44.9	0.49	22	Clc1ccc(N2CCN(c3nccc(-c4nccc(C#Cc5ccc6[nH]ncc6c5)n4)n3)CC2)cc1 [Ex. 61, 5-((2′-(4-(4-Chlorophenyl)piperazin-1-yl)-[2,4′-bipyrimidin]-4-yl)ethynyl)-1H-indazole]	
	> 30	> 30	COc1ccc2c(c1)CN(c1nccc(-c3nccc(C#Cc4ccc(C(=O)O)cc4)n3)n1)C2 [Ex. 10, 4-((2′-(5-Methoxyisoindolin-2-yl)-[2,4′-bipyrimidin]-4-yl)ethynyl)benzoic acid]	
28.9	0.9	26	C(#Cc1ccnc(-c2ccnc(N3CCC(c4ccccc4)CC3)n2)n1)c1ccc2[nH]ncc2c1 [Ex. 55, 5-((2′-(4-Phenylpiperidin-1-yl)-[2,4′-bipyrimidin]-4-yl)ethynyl)-1H-indazole]	
>122	0.049	> 6	Clc1cc2c(cn1)CN(c1nccc(-c3nccc(C#Cc4ccc5[nH]ncc5c4)n3)n1)C2 [Ex. 17, 5-((2′-(6-Chloro-1,3-dihydro-2H-pyrrolo[3,4-c]pyridin-2-yl)-[2,4′-bipyrimidin]-4-yl)ethynyl)-1H-indazole]	
	> 30	> 30	COc1ccc2c(c1)CN(c1nccc(-c3cc(F)cc(C#Cc4ccc5[nH]ncc5c4)c3)n1)C2 [Ex. 24, 5-((3-Fluoro-5-(2-(5-methoxyisoindolin-2-yl)pyrimidin-4-yl)phenyl)ethynyl)-1H-indazole]	
>103	0.29	> 30	Fc1ccc2c(c1)CN(c1nccc(-c3nccc(C#Cc4cnc5[nH]ncc5c4)n3)n1)C2 [Ex. 32, 5-((2′-(5-Fluoroisoindolin-2-yl)-[2,4′-bipyrimidin]-4-yl)ethynyl)-1H-pyrazolo[3,4-b]pyridine]	
	> 30	> 30	COC(=O)c1ccc(C#Cc2ccnc(-c3ccnc(N4Cc5ccc(OC)cc5C4)n3)n2)cc1 [Ex. 8, Methyl 4-((2′-(5-methoxyisoindolin-2-yl)-[2,4′-bipyrimidin]-4-yl)ethynyl)benzoate]	

SMILES	ROCK 2 Selectivity (ROCK2)	Kd (ROCK2; [1]) [µM]	Kd (ROCK1) [µM]	Kd (ROCK2) [µM]
CCCN1CCN(c2nccc(-c3nccc(C#Cc4ccc5[nH]ncc5c4)n3)n2)CC1 [Ex. 54, 5-((2′-(4-Propylpiperazin-1-yl)-[2,4′-bipyrimidin]-4-yl)ethynyl)-1H-indazole trifluoroacetate]	10.2	0.45	4.6	
COc1cc2c(cn1)CN(c1nccc(-c3nccc(C#Cc4ccc5[nH]ncc5c4)n3)n1)C2 [Ex. 15, 5-((2′-(6-Methoxy-1,3-dihydro-2H-pyrrolo[3,4-c]pyridin-2-yl)-[2,4′-bipyrimidin]-4-yl)ethynyl)-1H-indazole]	>35	0.17	> 6	
C(#Cc1ccnc(-c2ccnc(N3Cc4ccccc4C3)n2)n1)c1ccc2[nH]ncc2c1 [Ex. 12, 5-((2′-(Isoindolin-2-yl)-[2,4′-bipyrimidin]-4-yl)ethynyl)-1H-indazole]	139	0.0018	0.25	
N#Cc1ccc(C2CN(c3nccc(-c4nccc(C#Cc5ccc6[nH]ncc6c5)n4)n3)C2)cc1 [Ex. 50, 4-(1-(4-((1H-Indazol-5-yl)ethynyl)-[2,4′-bipyrimidin]-2′-yl)azetidin-3-yl)benzonitrile trifluoroacetate]	45	0.12	5.4	
FC(F)(F)c1ccc2c(c1)CN(c1nccc(-c3nccc(C#Cc4ccc5[nH]ncc5c4)n3)n1)C2 [Ex. 45, 5-((2′-(5-(Trifluoromethyl)isoindolin-2-yl)-[2,4′-bipyrimidin]-4-yl)ethynyl)-1H-indazole trifluoroacetate]	90.9	0.0011	0.1	
Fc1ccc2c(c1)CN(c1nccc(-c3nccc(C#Cc4ccc5[nH]ncc5c4)n3)n1)C2 [Ex. 13, 5-((2′-(5-Fluoroisoindolin-2-yl)-[2,4′-bipyrimidin]-4-yl)ethynyl)-1H-indazole]	1164	0.0079	9.2	
COc1ccc2c(c1)CN(c1nccc(-c3cccc(C#Cc4cc(F)c5[nH]ncc5c4)n3)n1)C2 [Ex. 19, 7-Fluoro-5-((6-(2-(5-methoxyisoindolin-2-yl)pyrimidin-4-yl)pyridin-2-yl)ethynyl)-1H-indazole]	>10.7		> 30	2.8
Fc1ccc2c(c1)CN(c1nccc(-c3nccc(C#Cc4cc(F)c5[nH]ncc5c4)n3)n1)C2 [Ex. 14, 7-Fluoro-5-((2′-(5-fluoroisoindolin-2-yl)-[2,4′-bipyrimidin]-4-yl)ethynyl)-1H-indazole]	>1071	0.028	> 30	

From patent publication US20220281841A1, “ETHYNYLHETEROCYCLES AS RHO-ASSOCIATED COILED-COIL KINASE (ROCK) INHIBITORS” (Angion Biomedica Corp., priority 2019, published 2022)
